Laboratory results: patent US20180250280A1 (BAYER PHARMA AKTIENGESELLSCHAFT, priority 2015, published 2018)

Columns and labels:
[1] = molecular target: T1, human factor XIa (Homo sapiens, UniProt P03951); experiment: Measurement of FXIa inhibition (fluorogenic peptide substrate, AMC cleavage); type: biochemical; conditions: factor XIa from Kordia 0.45 nM; substrate Boc-Glu(OBzl)-Ala-Arg-AMC 10 μM; 30 min at 22° C.; in some cases averages from multiple determinations
T1 construct: purchased Kordia

[2] = molecular target: T2, human plasma kallikrein (Homo sapiens, UniProt P03952); experiment: Determination of the plasma kallikrein activity (fluorogenic peptide substrate, AMC cleavage); type: biochemical; conditions: plasma kallikrein from Kordia 0.6 nM; substrate H-Pro-Phe-Arg-AMC 10 μM; 30 min at 22° C.; in some cases averages from multiple determinations
T2 construct: purchased Kordia
In short: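 Kallikrein cleavage of H-Pro-Phe-Arg-AMC was followed by AMC fluorescence (ex 360, em 460) after 15 min enzyme–compound preincubation. IC50 was derived versus DMSO controls over final concentrations of 50 μM to 0.00013 μM.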

T2 sequence (P03952 391-638 limits assumed): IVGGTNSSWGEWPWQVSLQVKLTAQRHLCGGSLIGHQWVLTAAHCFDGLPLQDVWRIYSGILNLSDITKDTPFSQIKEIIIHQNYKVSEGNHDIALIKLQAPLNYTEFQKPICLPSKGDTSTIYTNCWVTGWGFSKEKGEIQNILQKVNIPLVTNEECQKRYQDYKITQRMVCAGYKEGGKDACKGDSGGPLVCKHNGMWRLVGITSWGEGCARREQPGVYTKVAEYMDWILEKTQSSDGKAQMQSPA
T2 sequence (P03952 20-390 partner limits assumed): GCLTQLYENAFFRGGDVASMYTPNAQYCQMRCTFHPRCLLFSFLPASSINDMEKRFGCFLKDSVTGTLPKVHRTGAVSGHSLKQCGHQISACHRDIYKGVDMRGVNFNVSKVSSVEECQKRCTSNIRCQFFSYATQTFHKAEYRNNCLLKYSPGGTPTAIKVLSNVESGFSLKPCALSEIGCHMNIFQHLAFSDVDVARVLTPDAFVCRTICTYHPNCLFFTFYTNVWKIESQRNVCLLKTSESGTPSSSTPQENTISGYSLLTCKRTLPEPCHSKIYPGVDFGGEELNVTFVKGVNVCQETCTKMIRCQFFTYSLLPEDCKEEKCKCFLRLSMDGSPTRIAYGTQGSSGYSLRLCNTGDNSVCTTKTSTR
T1 sequence (P03951 388-625 limits assumed): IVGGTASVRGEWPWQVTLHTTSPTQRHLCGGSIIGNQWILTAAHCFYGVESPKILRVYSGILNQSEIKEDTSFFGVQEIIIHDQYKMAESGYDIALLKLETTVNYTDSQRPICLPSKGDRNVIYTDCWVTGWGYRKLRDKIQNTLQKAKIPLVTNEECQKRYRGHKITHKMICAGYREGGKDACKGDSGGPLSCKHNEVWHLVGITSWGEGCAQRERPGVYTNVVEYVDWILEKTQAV
T1 sequence (P03951 19-387 partner limits assumed): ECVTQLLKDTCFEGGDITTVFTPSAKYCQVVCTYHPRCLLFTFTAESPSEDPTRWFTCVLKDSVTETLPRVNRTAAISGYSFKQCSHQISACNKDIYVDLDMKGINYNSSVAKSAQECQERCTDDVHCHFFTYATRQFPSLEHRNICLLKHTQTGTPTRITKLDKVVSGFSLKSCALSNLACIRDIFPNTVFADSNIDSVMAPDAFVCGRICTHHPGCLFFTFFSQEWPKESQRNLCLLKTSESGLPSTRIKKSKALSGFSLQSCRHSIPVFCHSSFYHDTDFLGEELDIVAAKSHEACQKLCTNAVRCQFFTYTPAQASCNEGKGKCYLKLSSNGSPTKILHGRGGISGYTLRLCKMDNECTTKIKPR

SMILES	IC50 [1] [nM]	IC50 [2] [nM]
COc1cn(C(C[C@H]2CCCCO2)C(=O)Nc2ccc(C(N)=O)c(F)c2)c(=O)cc1-c1cc(Cl)ccc1OCC(F)(F)F (stereo partly drawn) [Example 23, 4-[(2-{4-[5-Chloro-2-(2,2,2-trifluoroethoxy)phenyl]-5-methoxy-2-oxopyridin-1(2H)-yl}-3-[(2R)-tetrahydro-2H-pyran-2-yl]propanoyl)amino]-2-fluorobenzamide]	34	340
COc1cn(C(CC2COCCO2)C(=O)Nc2ccc(C(=O)O)cc2)c(=O)cc1-c1cc(Cl)ccc1OCC(F)F (stereo not shown) [Example 29, 4-{[2-{4-[5-Chloro-2-(2,2-difluoroethoxy)phenyl]-5-methoxy-2-oxopyridin-1(2H)-yl}-3-(1,4-dioxan-2-yl)propanoyl]amino}benzoic acid]	1.6	80
COc1cn(C(CC2COCCO2)C(=O)Nc2ccc(C(N)=O)nc2)c(=O)cc1-c1cc(Cl)ccc1OCC(F)F (stereo not shown) [Example 30, 5-{[2-{4-[5-Chloro-2-(2,2-difluoroethoxy)phenyl]-5-methoxy-2-oxopyridin-1(2H)-yl}-3-(1,4-dioxan-2-yl)propanoyl]amino}pyridine-2-carboxamide]	4.7	74
CNC(=O)c1ccc(NC(=O)C(CC2COCCO2)n2cc(OC)c(-c3cc(Cl)ccc3OCC(F)F)cc2=O)cn1 (stereo not shown) [Example 31, 5-{[2-{4-[5-Chloro-2-(2,2-difluoroethoxy)phenyl]-5-methoxy-2-oxopyridin-1(2H)-yl}-3-(1,4-dioxan-2-yl)propanoyl]amino}-N-methylpyridine-2-carboxamide]	7.1	120
COc1cn(C(CC2COCCO2)C(=O)Nc2ccc(C(N)=O)c(F)c2)c(=O)cc1-c1cc(Cl)ccc1OCC(F)F (stereo not shown) [Example 32, 4-{[2-{4-[5-Chloro-2-(2,2-difluoroethoxy)phenyl]-5-methoxy-2-oxopyridin-1(2H)-yl}-3-(1,4-dioxan-2-yl)propanoyl]amino}-2-fluorobenzamide]	9.7	160
COc1cn(C(CC2COCCO2)C(=O)Nc2ccc3nn(C)cc3c2)c(=O)cc1-c1cc(Cl)ccc1OCC(F)F (stereo not shown) [Example 33, 2-{4-[5-Chloro-2-(2,2-difluoroethoxy)phenyl]-5-methoxy-2-oxopyridin-1(2H)-yl}-3-(1,4-dioxan-2-yl)-N-(2-methyl-2H-indazol-5-yl)propanamide]	5.8	66
COc1cn(C(CC2COCCO2)C(=O)Nc2ccc(C(=O)O)cc2)c(=O)cc1-c1cc(Cl)ccc1OCCF (stereo not shown) [Example 44, 4-{[2-{4-[5-Chloro-2-(2-fluoroethoxy)phenyl]-5-methoxy-2-oxopyridin-1(2H)-yl}-3-(1,4-dioxan-2-yl)propanoyl]amino}benzoic acid]	3	320
COc1cn(C(CC2COCCO2)C(=O)Nc2ccc(C(N)=O)nc2)c(=O)cc1-c1cc(Cl)ccc1OCCF (stereo not shown) [Example 45, 5-{[2-{4-[5-Chloro-2-(2-fluoroethoxy)phenyl]-5-methoxy-2-oxopyridin-1(2H)-yl}-3-(1,4-dioxan-2-yl)propanoyl]amino}pyridine-2-carboxamide]	14	280
CNC(=O)c1ccc(NC(=O)C(CC2COCCO2)n2cc(OC)c(-c3cc(Cl)ccc3OCCF)cc2=O)cn1 (stereo not shown) [Example 46, 5-{[2-{4-[5-Chloro-2-(2-fluoroethoxy)phenyl]-5-methoxy-2-oxopyridin-1(2H)-yl}-3-(1,4-dioxan-2-yl)propanoyl]amino}-N-methylpyridine-2-carboxamide]	8.9	150
COc1cn(C(CC2COCCO2)C(=O)Nc2ccc(C(N)=O)c(F)c2)c(=O)cc1-c1cc(Cl)ccc1OCCF (stereo not shown) [Example 47, 4-{[2-{4-[5-Chloro-2-(2-fluoroethoxy)phenyl]-5-methoxy-2-oxopyridin-1(2H)-yl}-3-(1,4-dioxan-2-yl)propanoyl]amino}-2-fluorobenzamide]	29	310
COc1cn(C(CC2COCCO2)C(=O)Nc2ccc3nn(C)cc3c2)c(=O)cc1-c1cc(Cl)ccc1OCCF (stereo not shown) [Example 48, 2-{4-[5-Chloro-2-(2-fluoroethoxy)phenyl]-5-methoxy-2-oxopyridin-1(2H)-yl}-3-(1,4-dioxan-2-yl)-N-(2-methyl-2H-indazol-5-yl)propanamide]	15	150
COc1cn(C(C[C@@H]2CCCCO2)C(=O)Nc2ccc(C(=O)O)cc2)c(=O)cc1-c1cc(Cl)ccc1OCC(F)(F)F (stereo partly drawn) [Example 49, 4-[(2-{4-[5-Chloro-2-(2,2,2-trifluoroethoxy)phenyl]-5-methoxy-2-oxopyridin-1(2H)-yl}-3-[(2S)-tetrahydro-2H-pyran-2-yl]propanoyl)amino]benzoic acid]	0.9	33
COc1cn(C(C[C@@H]2CCCCO2)C(=O)Nc2ccc3nn(C)cc3c2)c(=O)cc1-c1cc(Cl)ccc1OCC(F)(F)F (stereo partly drawn) [Example 51, 2-{4-[5-Chloro-2-(2,2,2-trifluoroethoxy)phenyl]-5-methoxy-2-oxopyridin-1(2H)-yl}-N-(2-methyl-2H-indazol-5-yl)-3-[(2S)-tetrahydro-2H-pyran-2-yl]propanamide]	6	65
CNC(=O)c1ccc(NC(=O)C(C[C@@H]2CCCCO2)n2cc(OC)c(-c3cc(Cl)ccc3OCC(F)(F)F)cc2=O)cn1 (stereo partly drawn) [Example 52, 5-[(2-{4-[5-Chloro-2-(2,2,2-trifluoroethoxy)phenyl]-5-methoxy-2-oxopyridin-1(2H)-yl}-3-[(2S)-tetrahydro-2H-pyran-2-yl]propanoyl)amino]-N-methylpyridine-2-carboxamide]	5.1	82
COc1cn(C(C[C@@H]2CCCCO2)C(=O)Nc2ccc(C(N)=O)c(F)c2)c(=O)cc1-c1cc(Cl)ccc1OCC(F)(F)F (stereo partly drawn) [Example 53, 4-[(2-{4-[5-Chloro-2-(2,2,2-trifluoroethoxy)phenyl]-5-methoxy-2-oxopyridin-1(2H)-yl}-3-[(2S)-tetrahydro-2H-pyran-2-yl]propanoyl)amino]-2-fluorobenzamide]	9.3	210
COc1cn(C(C[C@@H]2CCCCO2)C(=O)Nc2ccc(C(N)=O)nc2)c(=O)cc1-c1cc(Cl)ccc1OCC(F)(F)F (stereo partly shown) [Example 54]	3	90
COc1cn(C(C[C@H](C)OC)C(=O)Nc2ccc(C(N)=O)nc2)c(=O)cc1-c1cc(Cl)ccc1OCC(F)(F)F (stereo partly drawn) [Example 56, 5-[[(4S)-2-[4-[5-Chloro-2-(2,2,2-trifluoroethoxy)phenyl]-5-methoxy-2-oxo-1-pyridyl]-4-methoxypentanoyl]amino]pyridine-2-carboxamide]	7.1	120
COc1cn(C(C[C@@H]2CCCCO2)C(=O)Nc2ccc(C(=O)O)s2)c(=O)cc1-c1cc(Cl)ccc1OCC(F)(F)F (stereo partly drawn) [Example 72, 5-({2-{4-[5-Chloro-2-(2,2,2-trifluoroethoxy)phenyl]-5-methoxy-2-oxopyridin-1(2H)-yl}-3-[(2S)-tetrahydro-2H-pyran-2-yl]propanoyl}amino)thiophene-2-carboxylic acid]	1.6	24
COc1cc(NC(=O)C(C[C@@H]2CCCCO2)n2cc(OC)c(-c3cc(Cl)ccc3OCC(F)(F)F)cc2=O)ccc1C(=O)O (stereo partly drawn) [Example 76, 4-({2-{4-[5-Chloro-2-(2,2,2-trifluoroethoxy)phenyl]-5-methoxy-2-oxopyridin-1(2H)-yl}-3-[(2S)-tetrahydro-2H-pyran-2-yl]propanoyl}amino)-2-methoxybenzoic acid]	2.2	150
COc1cn(C(C[C@@H]2CCCCO2)C(=O)Nc2ccc3nc(C(=O)O)cn3c2)c(=O)cc1-c1cc(Cl)ccc1OCC(F)(F)F (stereo partly shown) [Example 77]	2.2	23
